{"source": "patent US10344024B2", "about": "“Compounds as ROR gamma modulators” (Glenmark Pharmaceuticals S.A., priority 2015, dated 2019)", "molecular_target": "T1, GST-tagged ROR gamma ligand binding domain (LBD) (Homo sapiens, UniProt P51449)", "T1 construct": "purchased Invitrogen", "T1 sequence (P51449 269-508 limits assumed)": "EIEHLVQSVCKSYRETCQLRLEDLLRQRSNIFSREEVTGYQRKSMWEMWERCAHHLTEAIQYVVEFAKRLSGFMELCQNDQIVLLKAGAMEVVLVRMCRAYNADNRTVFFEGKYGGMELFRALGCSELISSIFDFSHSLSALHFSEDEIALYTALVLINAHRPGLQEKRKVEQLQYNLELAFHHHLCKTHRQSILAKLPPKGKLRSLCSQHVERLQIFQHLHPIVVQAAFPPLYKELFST", "assay": "TR-FRET assay for ROR gamma (LanthaScreen co-activator peptide recruitment)", "assay_type": "biochemical", "settings": "for inhibition at 1 µM: compound concentration 1 μM; for inhibition at 1 µM / inhibition at 10 µM: TR-FRET ratio 520/495, percent of control; for inhibition at 10 µM: compound concentration 10 μM; for IC50: from dose response curve, nonlinear regression, read-out: IC50 range", "how_it_was_run": "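Antagonist-mode co-activator recruitment: 10 nM GST-RORγ LBD with compound (4% DMSO final) in 25 mM HEPES pH 7.4, 100 mM NaCl, 5 mM DTT, 0.01% BSA, 1 h at 22° C.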"}
{"smiles": "CCC(F)(F)c1ccc(CC(=O)Nc2ccc(-c3nccnc3O[C@@H](C)c3ccccc3Cl)cc2)cc1", "note": "[Example 85, (S)-N-(4-(3-(1-(2-Chlorophenyl)ethoxy)pyrazin-2-yl)phenyl)-2-(4-(1,1-difluoropropyl)phenyl)acetamide]", "values": [{"measurement": "inhibition at 1 µM", "value": 74.8, "unit": "%"}, {"measurement": "inhibition at 10 µM", "value": 79.6, "unit": "%"}, {"measurement": "IC50", "value": "100 to 500", "unit": "nM"}]}
{"smiles": "CC(O)C(F)(F)c1ccc(CC(=O)Nc2ccc(-c3nccnc3O[C@@H](C)c3ccccc3Cl)cc2)cc1", "note": "(stereo partly drawn) [Example 86, N-(4-(3-((S)-1-(2-Chlorophenyl)ethoxy)pyrazin-2-yl)phenyl)-2-(4-(1,1-difluoro-2-hydroxypropyl)phenyl)acetamide]", "values": [{"measurement": "inhibition at 1 µM", "value": 84.5, "unit": "%"}, {"measurement": "inhibition at 10 µM", "value": 86, "unit": "%"}, {"measurement": "IC50", "value": "50 to 100", "unit": "nM"}]}
{"smiles": "CCC(F)(F)c1ccc(CC(=O)Nc2ccc(-c3nccnc3Oc3ccccc3Cl)cc2)cc1", "note": "[Example 87, N-(4-(3-(2-Chlorophenoxy)pyrazin-yl)phenyl)-2-(4-(1,1-difluoropropyl)phenyl)acetamide]", "values": [{"measurement": "inhibition at 1 µM", "value": 16.3, "unit": "%"}, {"measurement": "inhibition at 10 µM", "value": 32.4, "unit": "%"}]}
{"smiles": "Cc1ccc([C@@H](C)Oc2nccnc2-c2ccc(NC(=O)Cc3ccc(C(F)(F)C(C)O)cc3)cc2)c(Cl)c1", "note": "(stereo partly drawn) [Example 88, N-(4-(3-((R)-1-(2-Chloro-4-methylphenyl)ethoxy)pyrazin-2-yl)phenyl)-2-(4-(1,1-difluoro-2-hydroxypropyl)phenyl)acetamide]", "values": [{"measurement": "inhibition at 1 µM", "value": 87.4, "unit": "%"}, {"measurement": "inhibition at 10 µM", "value": 85.5, "unit": "%"}, {"measurement": "IC50", "value": "< 50", "unit": "nM"}]}
{"smiles": "CCC(F)(F)c1ccc(CC(=O)Nc2ccc(-c3nccnc3OCc3c(C)noc3C)cc2)cc1", "note": "[Example 89, 2-(4-(1,1-Difluoropropyl)phenyl)-N-(4-(3-((3,5-dimethylisoxazol-4-yl)methoxy)pyrazin-2-yl)phenyl)acetamide]", "values": [{"measurement": "inhibition at 1 µM", "value": 58.8, "unit": "%"}, {"measurement": "inhibition at 10 µM", "value": 74.6, "unit": "%"}]}
{"smiles": "Cc1noc(C)c1CCOc1nccnc1-c1ccc(NC(=O)Cc2ccc(C(F)(F)C(C)O)cc2)cc1", "note": "(stereo not drawn) [Example 90, 2-(4-(1,1-Difluoro-2-hydroxypropyl)phenyl)-N-(4-(3-(2-(3,5-dimethylisoxazol-4-yl)ethoxy)pyrazin-2-yl)phenyl)acetamide]", "values": [{"measurement": "inhibition at 1 µM", "value": 90.7, "unit": "%"}, {"measurement": "inhibition at 10 µM", "value": 93.9, "unit": "%"}, {"measurement": "IC50", "value": "< 50", "unit": "nM"}]}
{"smiles": "CC(O)C(F)(F)c1ccc(CC(=O)Nc2ccc(-c3nccnc3OCc3ccccc3Cl)cc2)cc1", "note": "(stereo not drawn) [Example 91, N-(4-(3-((2-Chlorobenzyl)oxy)pyrazin-2-yl)phrnyl)-2-(4-(1,1-difluoro-2-hydroxypropyl)phenyl)acetamide]", "values": [{"measurement": "inhibition at 1 µM", "value": 79.3, "unit": "%"}, {"measurement": "inhibition at 10 µM", "value": 82.6, "unit": "%"}, {"measurement": "IC50", "value": "< 50", "unit": "nM"}]}
{"smiles": "Cc1ncsc1CCOc1nccnc1-c1ccc(NC(=O)Cc2ccc(C(F)(F)C(C)O)cc2)cc1", "note": "(stereo not drawn) [Example 92, 2-(4-(1,1-Difluoro-2-hydroxypropyl)phenyl)-N-(4-(3-(2-(4-methylthiazol-5-yl)ethoxy)pyrazin-2-yl)phenyl)acetamide]", "values": [{"measurement": "inhibition at 1 µM", "value": 83.5, "unit": "%"}, {"measurement": "inhibition at 10 µM", "value": 88, "unit": "%"}, {"measurement": "IC50", "value": "50 to 100", "unit": "nM"}]}
{"smiles": "CC(O)C(F)(F)c1ccc(CC(=O)Nc2ccc(-c3nccnc3OCC3CCCCC3)cc2)cc1", "note": "(stereo not drawn) [Example 93, N-(4-(3-(Cyclohexylmethoxy)pyrazin-2-yl)phenyl)-2-(4-(1,1-difluoro-2-hydroxypropyl)phenyl)acetamide]", "values": [{"measurement": "inhibition at 1 µM", "value": 86.6, "unit": "%"}, {"measurement": "inhibition at 10 µM", "value": 94.1, "unit": "%"}, {"measurement": "IC50", "value": "100 to 500", "unit": "nM"}]}
{"smiles": "CC(O)C(F)(F)c1ccc(CC(=O)Nc2ccc(-c3nccnc3N3CC(OCc4ccccc4)C3)cc2)cc1", "note": "(stereo not drawn) [Example 94, N-(4-(3-(3-(Benzyloxy)azetidin-1-yl)pyrazin-2-yl)phenyl)-2-(4-(1,1-difluoro-2-hydroxypropyl)phenyl)acetamide]", "values": [{"measurement": "inhibition at 1 µM", "value": 15.8, "unit": "%"}, {"measurement": "inhibition at 10 µM", "value": 45.6, "unit": "%"}]}
{"smiles": "Cc1ccc([C@H](C)Nc2nccnc2-c2ccc(NC(=O)Cc3ccc(C(F)(F)C(C)O)cc3)cc2)c(C)c1", "note": "(stereo partly drawn) [Example 95, 2-(4-(1,1-Difluoro-2-hydroxypropyl)phenyl)-N-(4-(3-(((S)-1-(2,4-dimethylphenyl)ethyl)amino)pyrazin-2-yl)phenyl)acetamide]", "values": [{"measurement": "inhibition at 1 µM", "value": 93.7, "unit": "%"}, {"measurement": "inhibition at 10 µM", "value": 95.4, "unit": "%"}, {"measurement": "IC50", "value": "< 50", "unit": "nM"}]}
